Values of other authors in patent US10034864B2, “1,2,5-oxadiazoles as inhibitors of indoleamine 2,3-dioxygenase” (Incyte Corporation, priority 2008, dated 2018).

Legend:
P815 tumor = settings: pre-immunized immune-competent mice challenged with tumor cells (Uyttenhove 2003)
LLC tumors = LLC tumors in C57Bl/6 mice, versus placebo (Friberg 2002)

Cn1cc(C[C@H](N)C(=O)O)c2ccccc21 [Example 1-MT, 1-methyl-tryptophan]
growth of tumors (P815 tumor): inhibited | formation of tumors (LLC tumors): markedly delayed
